Patent US8741932B2, “Imidazopyridine derivatives” (Piramal Enterprises Limited, priority 2009, dated 2014)

What was measured:
PI3Kα kinase = target: T1, PI3Kα kinase (Homo sapiens, UniProt P42336); test: Kinase assay (PI3Kα); format: biochemical; conditions: read-out: IC50 (μM) for PI3K inhibition
T1 construct: purchased Millipore, USA
Protocol: The kinase reaction was carried out in a 25 μL volume in a 1.5 mL microcentrifuge tube. The reaction mixture consisted of kinase buffer (10 mM Hepes, pH 7.5, 50 mM MgCl2), 20 ng PI3Kα kinase (Millipore, USA), 12.5 μg phosphotidylinositol (PI), 10 μM ATP and 1 μCi ^32γ P […]. […] The reactions were incubated at 30° C. for 20 minutes and were terminated by adding 1:1 mixture of MeOH and CHCl3. The tube contents were mixed on a vortex mixer and centrifuged at 10000 rpm for 2 minutes. 10 μL of the organic (lower) phase was spotted on to a TLC plate (silica, mobile phase: n-propanol and 2 M glacial acetic acid in 65:35 ratio). The plates were dried and exposed to an X-ray film. The bands appearing as a result of ^32γ P incorporation in PI were quantitated using the Quantityl)ne (BioRad, USA) densitometry program. PI-103 (Calbiochem, USA) was used as a standard.

STAT3 = STAT3 bioassay (Hela Stat3-luc, luciferase); format: cell-based; conditions: Oncostatin M induction
Protocol: Cells were seeded (Hela Stat3-luc, ATCC P/N 30-2002) in a white 96 well plate (Nunc cat.no.136101) at a density of 20,000cells/well in 179 μl volume per well (DMEM from Sigma containing 10% FCS). The plate was incubated for 24 hours at 37° C./5% CO2. The cells (wells in triplicates) were then treated with 1 μl/well of 200× stock of the desired compound concentration prepared in 100% DMSO. Curcumin was used as a standard or positive control, added 10 μg/ml in triplicate. DMSO was used as medium control (1 μl/well added in triplicates). The plate was incubated at 37° C./5% CO2 for 1 hour. 20 μl/well Oncostatin M (Oncostatin M, Human, Recombinant, E. coli, Cat.No. 496260, 10 μg from Calbiochem) was added to treated wells, induction control (in triplicate) (1000 ng/ml stock prepared in serum free medium to get final concentration 100 ng/ml). The plate was then incubated for 7-8 hours at 37° C./5% CO2 for induction. A typical assay would consist of triplicate of medium control, triplicate of induction control, triplicate of positive/standard control and test compounds at desired concentration in triplicates. For termination Luciferase assay protocol was followed where the culture medium was removed from all the wells.
200 μl well of PBS was added to remove traces of medium and compound. The PBS was discarded. 40 μl/well of 1× lysis buffer was added to all the wells. The plate was incubated at RT for 20 minutes with intermittent shaking. 100 μl/well of LAB reagent was added to all the wells in dark. {LAB reagent for 1 plate=8 ml Luciferase assay buffer (LAB)+1 ml Coenzyme A (Sigma cat no. C3019) (2.1 mg/ml stock in LAB)+530 μL of ATP (Sigma cat.no.A2383) (5.85 mg/ml stock in LAB)+1 ml luciferin reagent (Promega cat no.245355) (2 mg/ml stock in LAB, protect from light)}.
The luminescence was immediately read on polar star. The values were expressed as percentage inhibition, in terms of treated values to that STAT3 (induction control). IC50 values were calculated from graphs using these percentages.

IL-6 = test: Human monocyte assay, LPS-stimulated IL-6; format: cell-based; conditions: human monocytes, 1 μg/ml LPS, 5 hours
Protocol: The assay was designed as in the reference, Physiol.
Peripheral blood mononuclear cells (hPBMC) were harvested from human blood and suspended in RPMI 1640 culture medium containing 10% FCS, 100 U/mL penicillin and […] streptomycin (assay medium). Monocytes in the hPBMCs were counted using a Coulter Counter following which the cells were resuspended at 2×10^5 monocytes/mL. A cell suspension containing 2×10^4 monocytes was aliquoted per well of a 96-well plate. Subsequently, the hPBMCs were incubated for 4-5 hours at 37° C., 5% CO2 (During the incubation, the monocytes adhered to the bottom of 96-well plastic culture plate). Following the incubation, the non-adherent lymphocytes were washed with assay medium and the adherent monocytes re-fed with assay medium. After a 48-hour incubation period (37° C., 5% CO2), monocytes were pretreated with various concentrations of representative compounds of present invention (refer to table 6 and 7) (prepared in DMSO) or vehicle (0.5% DMSO) for 30 minutes and stimulated with 1 μg/ml LPS (Escherchia coli 0111:B4, Sigma Chemical Co., St. Louis, Mo.). The incubation was continued for 5 hours at 37° C., 5% CO2. Supernatants were harvested, assayed for IL-6 and TNF-α by ELISA as described by the manufacturer (BD Biosciences, USA). Dexamethasone (10 μM) was used as standard for this assay. […] Biological results for both IL-6 and TNFα are indicated in Table 6 and Table 7 respectively.

A549 = test: Cytotoxicity assay (propidium iodide), A549; format: cell-based; conditions: A549 (C1a, lung), 48 hours
Protocol: (§1) Cells from cell lines as mentioned in the table given below were seeded at a density of 3000 cells/well in a white opaque 96-well plate. Following incubation at 37° C./5% CO2 for a period of 18-24 hours, the cells were treated with various concentrations (stock solution was prepared in DMSO and subsequent dilutions were made in media as per ATCC guidelines) of the representative compounds of present invention (refer table 3) for a period of 48 hours. At the end of treatment, the spent culture medium was discarded, the cells were washed with 1×PBS and 200 μl of 7 μg/ml propidium iodide was added to each well. The plates were frozen at −70° C. for at least 24 hours. For analysis, the plates were brought to RT, allowed to thaw and were read in PolarStar fluorimeter with the fluorescence setting. The percentage of viable cells in the non treated set of wells was considered to be 100 and the percentage viability following treatment was calculated accordingly. IC50 values were calculated from graphs plotted using these percentages.

H460 = test: Cytotoxicity assay (propidium iodide), H460; format: cell-based; conditions: H460 (C1b, lung), 48 hours
Protocol: as §1

A2780 = test: Cytotoxicity assay (propidium iodide), A2780; format: cell-based; conditions: for inhibition at 1 µM / % inhibition at 1 μM: A2780 (C3a)
Protocol: as §1

PC3 = test: Cytotoxicity assay (propidium iodide), PC3; conditions: for inhibition at 1 µM: Homo sapiens, PC-3, read-out: % inhibition at 1 μM; for % inhibition at 1 μM: PC3 (C2a)
Protocol: as §1

T1 sequence (P42336 whole entry): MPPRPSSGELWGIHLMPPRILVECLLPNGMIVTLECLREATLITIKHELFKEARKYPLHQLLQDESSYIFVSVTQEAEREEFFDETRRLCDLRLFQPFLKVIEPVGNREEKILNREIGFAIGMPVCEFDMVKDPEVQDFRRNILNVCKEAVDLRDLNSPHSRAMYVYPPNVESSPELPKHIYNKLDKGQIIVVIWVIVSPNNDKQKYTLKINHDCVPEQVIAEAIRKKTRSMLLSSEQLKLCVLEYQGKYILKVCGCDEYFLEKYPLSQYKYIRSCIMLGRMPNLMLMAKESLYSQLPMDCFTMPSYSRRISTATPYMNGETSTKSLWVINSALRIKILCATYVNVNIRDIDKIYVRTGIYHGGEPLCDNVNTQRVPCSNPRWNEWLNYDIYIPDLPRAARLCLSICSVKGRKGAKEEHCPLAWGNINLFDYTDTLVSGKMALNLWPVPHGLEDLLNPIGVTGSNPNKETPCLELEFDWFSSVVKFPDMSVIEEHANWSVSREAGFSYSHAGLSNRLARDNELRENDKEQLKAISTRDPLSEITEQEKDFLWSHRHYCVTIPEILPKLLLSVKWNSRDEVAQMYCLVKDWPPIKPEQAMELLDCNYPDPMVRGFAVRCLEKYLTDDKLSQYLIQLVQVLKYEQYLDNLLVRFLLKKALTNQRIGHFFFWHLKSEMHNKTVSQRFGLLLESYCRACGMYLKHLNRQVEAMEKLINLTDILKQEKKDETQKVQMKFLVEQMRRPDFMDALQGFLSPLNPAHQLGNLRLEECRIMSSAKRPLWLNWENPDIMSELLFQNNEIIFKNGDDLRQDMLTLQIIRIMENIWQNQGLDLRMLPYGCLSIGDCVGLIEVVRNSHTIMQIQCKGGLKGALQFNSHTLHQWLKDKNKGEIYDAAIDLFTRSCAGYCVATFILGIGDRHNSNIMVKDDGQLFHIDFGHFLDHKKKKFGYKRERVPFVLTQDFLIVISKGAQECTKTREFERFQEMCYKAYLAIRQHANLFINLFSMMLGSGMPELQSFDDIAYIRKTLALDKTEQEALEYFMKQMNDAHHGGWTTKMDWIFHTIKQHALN
T1 sequence (P27986 whole entry partner): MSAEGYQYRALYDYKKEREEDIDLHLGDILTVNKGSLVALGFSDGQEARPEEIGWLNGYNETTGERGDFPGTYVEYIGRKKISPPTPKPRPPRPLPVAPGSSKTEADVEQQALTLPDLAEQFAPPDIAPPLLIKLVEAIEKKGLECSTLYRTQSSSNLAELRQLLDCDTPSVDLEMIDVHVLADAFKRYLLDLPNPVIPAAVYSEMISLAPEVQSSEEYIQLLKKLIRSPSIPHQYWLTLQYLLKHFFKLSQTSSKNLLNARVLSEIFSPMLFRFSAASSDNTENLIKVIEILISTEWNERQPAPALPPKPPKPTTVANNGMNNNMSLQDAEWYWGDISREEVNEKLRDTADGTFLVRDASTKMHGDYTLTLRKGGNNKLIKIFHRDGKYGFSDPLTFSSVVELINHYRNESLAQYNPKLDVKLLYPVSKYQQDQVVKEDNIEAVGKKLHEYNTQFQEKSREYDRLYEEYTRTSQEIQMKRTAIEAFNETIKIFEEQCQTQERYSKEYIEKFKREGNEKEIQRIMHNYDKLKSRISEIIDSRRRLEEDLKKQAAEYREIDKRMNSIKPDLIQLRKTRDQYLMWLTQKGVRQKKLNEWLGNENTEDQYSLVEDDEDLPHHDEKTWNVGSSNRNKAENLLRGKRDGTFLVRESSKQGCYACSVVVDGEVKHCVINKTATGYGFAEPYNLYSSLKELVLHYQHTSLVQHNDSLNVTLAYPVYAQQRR

## Cc1cc(S(=O)(=O)N(C)N=Cc2cnc3ccc(-c4cccnc4)cn23)ccc1Br [Example 22, 4-Bromo-N, 3-dimethyl-N′-((6-(pyridine-3-yl)imidazo[1,2-a]pyridine-3-yl)methylene) benzenesulfonohydrazide]
PI3Kα kinase
  IC50: 0.01 to 0.5 µM
STAT3; Homo sapiens
  IC50: 0.1 to 5 µM
IL-6; Monocyte
  IC50: ≥ 5 µM

## Cc1ccccc1S(=O)(=O)N(C)/N=C/c1cnc2ccc(-c3cccnc3)cn12 [Example 53, (E)-N, 2-dimethyl-N′-((6-(pyridin-3-yl)imidazo[1,2-a]pyridin-3-yl)methylene)benzenesulfonohydrazide]
A549; Homo sapiens
  IC50: 0.01 to 5 µM
H460; Homo sapiens, NCI-H460
  IC50: 0.01 to 5 µM
IL-6; Monocyte
  IC50: 0.001 to 5 µM

## CN(/N=C/c1cnc2ccc(-c3cccnc3)cn12)S(=O)(=O)c1ccccc1OC(F)(F)F [Example 54, (E)-N-methyl-N′-((6-(pyridin-3-yl)imidazo[1,2-a]pyridin-3-yl)methylene)-2-(trifluoromethoxy)benzenesulfonohydrazide]
A549; Homo sapiens
  IC50: 0.01 to 5 µM
H460; Homo sapiens, NCI-H460
  IC50: 0.01 to 5 µM
IL-6; Monocyte
  IC50: 0.001 to 5 µM

## CN(/N=C/c1cnc2ccc(-c3cccnc3)cn12)S(=O)(=O)c1cc(C(F)(F)F)ccc1Cl [Example 65, (E)-2-chloro-N-methyl-N′-((6-(pyridin-3-yl)imidazo[1,2-a]pyridin-3-yl)methylene)-5-(trifluoromethyl)benzenesulfonohydrazide]
A549; Homo sapiens
  IC50: 0.01 to 5 µM
H460; Homo sapiens, NCI-H460
  IC50: 0.01 to 5 µM
IL-6; Monocyte
  IC50: 0.001 to 5 µM

## COc1ccc(F)cc1S(=O)(=O)N(C)/N=C/c1cnc2ccc(-c3cccnc3F)cn12 [Example 88, (E)-5-Fluoro-N′-((6-(2-fluoropyridin-3-yl)imidazo[1,2-a]pyridin-3-yl)methylene)-2-methoxy-N-methylbenzenesulfonohydrazide]
A549; Homo sapiens
  IC50: 0.01 to 5 µM
H460; Homo sapiens, NCI-H460
  IC50: 0.01 to 5 µM
IL-6; Monocyte
  IC50: 0.001 to 5 µM

## COc1ccc(Br)cc1S(=O)(=O)N(C)/N=C/c1cnc2ccc(-c3cccnc3F)cn12 [Example 91, (E)-5-bromo-N′-((6-(2-fluoropyridin-3-yl)imidazo[1,2-a]pyridin-3-yl)methylene)-2-methoxy-N-methylbenzenesulfonohydrazide]
A2780; Homo sapiens
  inhibition at 1 µM: > 50%
PC3
  inhibition at 1 µM: > 50%

## Cc1ccc(F)cc1S(=O)(=O)N(C)/N=C/c1cnc2c(C)cc(-c3cccnc3)cn12 [Example 100, (E)-5-Fluoro-N,2-dimethyl-N′-((8-methyl-6-(pyridin-3-yl)imidazo[1,2-a]pyridin-3-yl)methylene)benzenesulfonohydrazide]
PI3Kα kinase
  IC50: 0.01 to 0.5 µM
A549; Homo sapiens
  IC50: 0.01 to 5 µM
H460; Homo sapiens, NCI-H460
  IC50: 0.01 to 5 µM
A2780; Homo sapiens, A2780 (C3a, ovarian), 48 hours
  IC50: 0.01 to 5 µM

## Cc1ccc(NC(=O)N(C)/N=C/c2cnc3ccc(-c4cccnc4)cn23)cc1 [Example 142, (E)-1-methyl-2-((6-(pyridin-3-yl)imidazo[1,2-a]pyridin-3-yl)methylene)-N-p-tolylhydrazinecarboxamide]
A2780; Homo sapiens
  inhibition at 1 µM: 30 to 50%
IL-6; Monocyte
  IC50: ≥ 5 µM
PC3
  inhibition at 1 µM: 30 to 50%

## Cc1ccc(F)c(NC(=O)N(C)/N=C/c2cnc3ccc(-c4cccnc4)cn23)c1 [Example 143, (E)-N-(2-fluoro-5-methylphenyl)-1-methyl-2-((6-(pyridin-3-yl)imidazo[1,2-a]pyridin-3-yl)methylene)hydrazinecarboxamide]
A2780; Homo sapiens
  inhibition at 1 µM: 30 to 50%
IL-6; Monocyte
  IC50: 0.001 to 5 µM
PC3
  inhibition at 1 µM: 30 to 50%

## Cc1ccc(F)cc1NC(=O)N(C)/N=C/c1cnc2ccc(-c3cccnc3)cn12 [Example 144, (E)-N-(5-fluoro-2-methylphenyl)-1-methyl-2-((6-(pyridin-3-yl)imidazo[1,2-a]pyridin-3-yl)methylene)hydrazinecarboxamide]
A2780; Homo sapiens
  inhibition at 1 µM: 30 to 50%
IL-6; Monocyte
  IC50: ≥ 5 µM
PC3
  inhibition at 1 µM: 30 to 50%

## CN(N=Cc1cnc2ccc(Br)cn12)C(=O)NCc1ccccc1 [Example 145, N-benzyl-2-((6-bromoimidazo[1,2-a]pyridin-3-yl)methylene)-1-methylhydrazinecarboxamide]
IL-6; Monocyte
  IC50: 0.001 to 5 µM

## Cc1ccc(F)c(NC(=O)N(C)N=Cc2cnc3ccc(Br)cn23)c1 [Example 146]
A2780
  % inhibition at 1 μM: ++ (% Inhibition >50%)
IL-6
  IC50: ≥ 5 µM
PC3
  % inhibition at 1 μM: ++ (% Inhibition >50%)

## CN(/N=C/c1cnc2ccc(-c3cccnc3)cn12)C(=S)NCCN1CCOCC1 [Example 148]
IL-6
  IC50: ≥ 5 µM

## CN(/N=C/c1cnc2ccc(-c3cccnc3)cn12)C(=S)Nc1ccc(C#N)cc1 [Example 149, (E)-N-(4-cyanophenyl)-1-methyl-2-((6-(pyridin-3-yl)imidazo[1,2-a]pyridin-3-yl)methylene)hydrazinecarbothioamide]
A2780; Homo sapiens
  inhibition at 1 µM: 30 to 50%
IL-6; Monocyte
  IC50: ≥ 5 µM
PC3
  inhibition at 1 µM: 30 to 50%

## COc1ccc(NC(=S)N(C)/N=C/c2cnc3ccc(-c4cccnc4)cn23)cc1 [Example 150, (E)-N-(4-methoxyphenyl)-1-methyl-2-((6-(pyridin-3-yl)imidazo[1,2-a]pyridin-3-yl)methylene)hydrazinecarbothioamide]
A2780; Homo sapiens
  inhibition at 1 µM: 30 to 50%
IL-6; Monocyte
  IC50: ≥ 5 µM
PC3
  inhibition at 1 µM: 30 to 50%

## CN(N=Cc1cnc2ccc(Br)cn12)C(=S)NCCN1CCOCC1 [Example 151, 2-((6-bromoimidazo[1,2-a]pyridin-3-yl)methylene)-1-methyl-N-(2-morpholinoethyl) hydrazinecarbothioamide]
IL-6
  IC50: 0.001 to 5 µM

## CN(N=Cc1cnc2ccc(Br)cn12)C(=S)Nc1ccc(C(F)(F)F)cc1 [Example 152, 2-((6-bromoimidazo[1,2-a]pyridin-3-yl)methylene)-1-methyl-N-(4-(trifluoromethyl)phenyl) hydrazinecarbothioamide]
A2780
  % inhibition at 1 μM: + (50% ≧ % Inhibition ≧ 30%)
IL-6
  IC50: 0.001 to 5 µM
PC3
  % inhibition at 1 μM: + (50% ≧ % Inhibition ≧ 30%)

## (E)-5-fluoro-N′-((6-(5-fluoropyridin-3-yl) imidazo[1,2-a]pyridin-3-yl)methylene)-N, 2-dimethylbenzenesulfonohydrazide [Example 132]
A549
  IC50: 0.01 to 5 µM
H460
  IC50: 0.01 to 5 µM

## N-methyl-1-phenyl-N′-((6-pyridin-3-yl) imidazo[1,2-a]pyridine-3-yl) methylene)benzenesulfonohydrazide [Example 28]
STAT3
  IC50: > 10 µM
IL-6
  IC50: 0.001 to 5 µM
